Source: PubChem BioAssay (NCI)
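Five concentrations, 48 hours, 96-well plates. TGI: total growth inhibition.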

Assays:
Assay in all cases: NCI tumour cell line growth inhibition, 48 h
[1] = test system: NCI-H23 lung
[2] = test system: SF-268 CNS
[3] = test system: MDA-MB-231 breast
[4] = test system: LOX IMVI melanoma
[5] = test system: HCC-2998 colon
[6] = test system: SK-MEL-5 melanoma
[7] = test system: MDA-MB-435
[8] = test system: SK-OV-3 ovarian
[9] = test system: U251 CNS
[10] = test system: TK-10 renal
[11] = test system: MDA-N
[12] = test system: UO-31 renal
[13] = test system: NCI-H226 lung
[14] = test system: SNB-19 CNS
[15] = test system: IGROV1 ovarian
[16] = test system: T-47D breast
[17] = test system: NCI/ADR-RES ovarian
[18] = test system: CCRF-CEM leukemia
[19] = test system: HOP-92 NSCLC
[20] = test system: OVCAR-5 ovarian
[21] = test system: SW-620 colon
[22] = test system: KM12 colon
[23] = test system: HT29 colon
[24] = test system: M14 melanoma
[25] = test system: SN12C renal
[26] = test system: SNB-75 CNS
[27] = test system: SF-539 CNS
[28] = test system: NCI-H522 lung
[29] = test system: MALME-3M melanoma
[30] = test system: COLO 205 colon
[31] = test system: K-562 leukemia
[32] = test system: SF-295 CNS
[33] = test system: MCF7 breast
[34] = test system: RPMI-8226 leukemia
[35] = test system: PC-3 prostate
[36] = test system: A498 renal
[37] = test system: HL-60(TB) leukemia
[38] = test system: NCI-H460 lung
[39] = test system: SK-MEL-2 melanoma
[40] = test system: SR leukemia
[41] = test system: HCT-116 colon
[42] = test system: DU-145 prostate
[43] = test system: EKVX NSCLC
[44] = test system: OVCAR-8 ovarian
[45] = test system: MOLT-4 leukemia
[46] = test system: OVCAR-4 ovarian
[47] = test system: CAKI-1 renal
[48] = test system: A549 NSCLC
[49] = test system: 786-0 renal
[50] = test system: RXF 393 renal
[51] = test system: UACC-62 melanoma
[52] = test system: HS 578T breast
[53] = test system: OVCAR-3 ovarian
[54] = test system: ACHN renal
[55] = test system: HOP-62 NSCLC

COc1c(O)c2c(=O)cc(OC)c3c4c(OC)cc(=O)c5c(O)c(OC)c6c(c(c1C(C(C)O)C6C(C)O)c23)c54 (stereo not given)
TGI [1]: 3.71 µM
TGI [2]: 15 µM
TGI [3]: 5.48 µM
TGI [4]: 3.08 µM
TGI [5]: 1.65 µM
TGI [6]: 1.15 µM
TGI [7]: 5.44 µM
TGI [8]: 8.64 µM
TGI [9]: 11.3 µM
TGI [10]: 4.66 µM
TGI [11]: 3.96 µM
TGI [12]: 2.3 µM
TGI [13]: 5.46 µM
TGI [14]: 6.22 µM
TGI [15]: 2.3 µM
TGI [16]: 8.33 µM
TGI [17]: 3.66 µM
TGI [18]: 3.23 µM
TGI [19]: 1.49 µM
TGI [20]: 7.62 µM
TGI [21]: 4.33 µM
TGI [22]: 3.43 µM
TGI [23]: 3.71 µM
TGI [24]: 2.34 µM
TGI [25]: 3.17 µM
TGI [26]: 2.89 µM
TGI [27]: 2.11 µM
TGI [28]: 3.82 µM
TGI [29]: 2.75 µM
TGI [30]: 4.22 µM
TGI [31]: 1.66 µM
TGI [32]: 1.97 µM
TGI [33]: 4.04 µM
TGI [34]: 4.8 µM
TGI [35]: 1.85 µM
TGI [36]: 3.45 µM
TGI [37]: 1.67 µM
TGI [38]: 1.18 µM
TGI [39]: 3.73 µM
TGI [40]: 5.37 µM
TGI [41]: 6.18 µM
TGI [42]: 8.14 µM
TGI [43]: 3.56 µM
TGI [44]: 2.48 µM
TGI [45]: 1.25 µM
TGI [46]: 4.96 µM
TGI [47]: 0.842 µM
TGI [48]: 2.66 µM
TGI [49]: 4.78 µM
TGI [50]: 1.76 µM
TGI [51]: 3.54 µM
TGI [52]: 6.07 µM
TGI [53]: 2.66 µM
TGI [54]: 2.93 µM
TGI [55]: 2.02 µM
